Publication PMC10874388, “Cyclic peptides discriminate BCL-2 and its clinical mutants from BCL-XL by engaging a single-residue discrepancy” (Nature Communications, 2024)
Values joined by “and” are separate entries in the source; they are usually repeats but may differ in a detail not shown here. Identical values can stand only once.

Tests used:
Type in all cases: cell-based
RS4:11 cells = test: Cell viability assay (CellTiter-Glo), RS4:11; details: for raw luminescence reading / inhibition rate: RS4:11, single wells
Procedure, shortened: (§1)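 Compounds added in serum-free medium for 4 h (RS4:11: 6 h), then FBS brought to 10% and incubation continued to 24 h or 48 h total at 37 °C, 5% CO2. Viability by CellTiter-Glo 2.0 luminescence; IC50 calculated.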

[1] = system: A549 cells overexpressing BCL-2 WT; test: Cell viability assay, A549 stably overexpressing BCL-2 WT; details: A549 BCL2-WT, single wells
Method: (§2) Cell viability was measured using CellTiter-Glo® 2.0 Reagent (Promega, G9242). […] After different inhibitors were added into serum-free medium and cultured for 4 h (RS4:11 for 6 h), FBS were supplemented to 10% and then incubated totally for 24 h or 48 h. Finally, the IC50 values were calculated based on measurements using a microplate reader (Thermo, Varioskan LUX). Statistical analysis was performed using software GraphPad Prism 7.0.
Lentivirus packaging vectors pMDLg/pRRE, pRSV-Rev, and pVSV-G were obtained from Prof. Han Jiahuai’s lab (Xiamen University). Lentiviruses were produced using 3rd-generation lentivirus packaging plasmids transiently transfected into HEK293T cells with the constructs of interest using 0.25 M CaCl2. Media was changed after 16 h, and supernatants containing infectious virus particles were harvested 24 h later. A second viral harvest was made following a further 24 h incubation with fresh media. Virus containing supernatant was filtered through a […], and stored at 4 °C or −80 °C until being used. Typically, A549 cells were seeded into 10 cm cell culture dishes at 4 ~ 8 × 10^5 cells/cm^2. An equivalent volume of virus containing culture medium was added along with polybrene (Sigma) to a final concentration of 10 µg/mL. Cells were incubated at 37 °C for 20 h, before they were washed and resuspended in fresh culture media. The expression level of BCL-2 was measured by qPCR and western blot methods.

Jurkat cells = test: Cell viability assay (CellTiter-Glo), Jurkat
Method: (§3) The cell lines Jurkat (TIB-152), El4 (TIB-39), Daudi (ccl-213), RS4:11 (crl-1873), A549 (ccl-185), HepG2 (hb-8065) and PANC-1 (crl-1469) were purchased from ATCC (American Type Culture Collection), and MGC-803 (C6582) was purchased from Beyotime (https://www.beyotime.com/product/C6582.htm). […] Daudi and RS4:11 cells were cultured in RPMI-1640 medium (HyClone, SH30809.01) and 10% FBS (Gibco, 10099-141), whereas HepG2, MGC-803 and PANC-1 cells were cultured in MDEM (HyClone, SH30243.01). Cells were maintained at 37 °C under a humidified, 5% (v/v) CO2-containing atmosphere.
as §2

Daudi cells = test: Cell viability assay (CellTiter-Glo), Daudi; details: for raw viability signal, replicates: Daudi
Procedure, shortened: as §1

A549 cells (control) = test: Cell viability assay (CellTiter-Glo), normal A549 (control); details: for raw luminescence reading / control inhibiton rate: A549 control, single wells
Method: as §3, §2

O=C(c1cc(-c2cc3c(cc2C(=O)N2Cc4ccccc4C[C@H]2CN2CCOCC2)OCO3)n2c1CCCC2)N(c1ccccc1)c1ccc(O)cc1 [S55746]
IC50 (RS4:11 cells; 48 h treatment, CellTiter-Glo, small-molecule inhibitors, cells marked (nM)): 4.5 ± 0.1 nM | raw luminescence reading (RS4:11 cells; 2.44141 nM): 232300 and 260200 and 275600 and 316000 and 308700 and 306800 | raw luminescence reading (RS4:11 cells; 4.88281 nM): 135300 and 123100 and 129200 and 110700 and 132100 and 115900 | inhibition rate (RS4:11 cells; 4.88281 nM, 0.00488281 µM): 53% and 57% and 55% and 61% and 54% and 59% | raw luminescence reading (RS4:11 cells; 9.76562 nM): 75370 and 71000 and 72070 and 63170 and 68200 and 61260 | inhibition rate (RS4:11 cells; 9.76562 nM, 0.00976562 µM): 74% and 75% and 78% and 76% and 79% | raw luminescence reading (RS4:11 cells; 19.5312 nM): 38320 and 36520 and 36660 and 31950 and 34870 and 31060 | inhibition rate (RS4:11 cells; 19.5312 nM, 0.0195312 µM): 87% and 89% and 88% | raw luminescence reading (RS4:11 cells; 39.0625 nM): 14610 and 13790 and 14580 and 12190 and 12650 and 12610 | inhibition rate (RS4:11 cells; 39.0625 nM, 0.0390625 µM): 95% and 96% | raw luminescence reading (RS4:11 cells; 78.125 nM): 4289 and 3678 and 4541 and 3543 and 3931 and 3419 | inhibition rate (RS4:11 cells; 78.125 nM, 0.078125 µM): 98% and 99% | raw luminescence reading (RS4:11 cells; 156.25 nM): 1268 and 1101 and 1335 and 1644 and 1000 and 916.1 | inhibition rate (RS4:11 cells; 156.25 nM, 0.15625 µM): 100% and 99% | inhibition rate (RS4:11 cells; 312.5 nM): 100% | raw luminescence reading (RS4:11 cells; 312.5 nM): 809.8 and 810.5 and 948.9 and 960.0 and 1116 and 1097 | inhibition rate (RS4:11 cells; 625 nM): 99% | raw luminescence reading (RS4:11 cells; 625 nM): 1448 and 1571 and 1720 and 1855 and 1831 and 2149 | inhibition rate (RS4:11 cells; 1250 nM): 100% | raw luminescence reading (RS4:11 cells; 1250 nM): 256.4 and 322.1 and 360.1 and 295.0 and 378.2 and 348.9 | inhibition rate (RS4:11 cells; 2500 nM): 100% | raw luminescence reading (RS4:11 cells; 2500 nM): 334.6 and 379.8 and 329.3 and 445.4 and 358.3 and 346.2 | inhibition rate (RS4:11 cells; 5000 nM): 100% | inhibition rate (RS4:11 cells; 10000 nM): 100% | raw luminescence reading (RS4:11 cells; 10000 nM): 297.6 and 210.5 and 312.1 and 264.1 and 325.8 and 327.8 | BCL2-WT inhibition rate ([1]; 3.125 uM): 2.61% and 4.22% and -4.33% and 4% and -2.32% | raw luminescence reading ([1]; 3.125 uM): 861200 and 847000 and 922600 and 850300 and 904800 and 882000 | BCL2-WT inhibition rate ([1]; 6.25 uM): 12% and 11% and 10% and 8% and 15% | raw luminescence reading ([1]; 6.25 uM): 774200 and 789000 and 799200 and 813400 and 753900 and 827800 | BCL2-WT inhibition rate ([1]; 12.5 uM): 25% and 23% and 22% and 26% | raw luminescence reading ([1]; 12.5 uM): 665800 and 680900 and 679300 and 687300 and 653500 and 700500 | BCL2-WT inhibition rate ([1]; 25 uM): 32% and 31% | raw luminescence reading ([1]; 25 uM): 602600 and 612300 and 599000 and 609600 and 600600 and 625900 | BCL2-WT inhibition rate ([1]; 50 uM): 45% | raw luminescence reading ([1]; 50 uM): 489600 and 486500 and 483800 and 490200 and 490400 and 500400 | BCL2-WT inhibition rate ([1]; 100 uM): 51% and 50% | raw luminescence reading ([1]; 100 uM): 433600 and 432600 and 430000 and 431900 and 437900 and 439800 | BCL2-WT inhibition rate ([1]; 200 uM): 51% and 53% and 52% and 50% | raw luminescence reading ([1]; 200 uM): 434700 and 435900 and 419200 and 420100 and 446100 and 441200 | raw viability signal, replicates (Jurkat cells; 1.5625 uM): 1714000 and 1704000 and 1684000 and 1696000 and 1705000 and 1721000 | raw viability signal, replicates (Jurkat cells; 3.125 uM): 1448000 and 1401000 and 1343000 and 1377000 and 1375000 and 1402000 | raw viability signal, replicates (Jurkat cells; 6.25 uM): 1130000 and 1065000 and 1037000 and 1061000 and 1063000 and 1084000 | raw viability signal, replicates (Jurkat cells; 12.5 uM): 892300 and 842800 and 825800 and 842200 and 844000 and 860800 | raw viability signal, replicates (Jurkat cells; 25 uM): 395000 and 492300 and 419200 and 469600 and 467400 and 468800 | raw viability signal, replicates (Jurkat cells; 50 uM): 146000 and 160200 and 184200 and 190000 and 211800 and 228200 | IC50 (Daudi cells; 48 h treatment, CellTiter-Glo): 10 ± 0.4 µM | raw viability signal, replicates (Daudi cells; 3.125 uM): 1593 and 1426 and 1310 and 1450 and 1626 and 1878 | raw viability signal, replicates (Daudi cells; 6.25 uM): 1078 and 1072 and 931.3 and 1127 and 973.9 and 1033 | raw viability signal, replicates (Daudi cells; 12.5 uM): 455.5 and 506.4 and 780.1 and 751.1 and 919.0 and 638.7 | raw viability signal, replicates (Daudi cells; 25 uM): 431.3 and 645.0 and 475.8 and 693.5 and 515.7 and 555.5 | raw viability signal, replicates (Daudi cells; 50 uM): 362.9 and 364.8 and 354.3 and 237.1 and 424.9 and 407.4 | raw viability signal, replicates (Daudi cells; 100 uM): 330.6 and 360.1 and 410.7 and 529.9 and 565.2 and 706.1 | IC50 (A549 cells (control); 48 h, CellTiter-Glo, n = 6, read-out: IC50 A549 control (original cells)): 74.1 ± 4.5 µM | raw luminescence reading (A549 cells (control); 3.125 uM): 680400 and 663400 and 563700 and 629300 and 626800 and 613100 | raw luminescence reading (A549 cells (control); 6.25 uM): 624000 and 698000 and 600600 and 640100 and 681300 and 637500 | raw luminescence reading (A549 cells (control); 12.5 uM): 490700 and 564100 and 465600 and 496900 and 544400 and 512100 | control inhibiton rate (A549 cells (control); 25 uM): 29% and 19% and 33% and 30% and 20% and 28% | raw luminescence reading (A549 cells (control); 25 uM): 465600 and 531000 and 436600 and 460300 and 522200 and 471500 | control inhibiton rate (A549 cells (control); 50 uM): 45% and 39% and 47% and 38% and 42% | raw luminescence reading (A549 cells (control); 50 uM): 357700 and 400600 and 345700 and 358400 and 403100 and 379300 | control inhibiton rate (A549 cells (control); 100 uM): 58% and 52% and 57% and 50% and 55% | raw luminescence reading (A549 cells (control); 100 uM): 277600 and 315100 and 274100 and 282200 and 324600 and 296100 | control inhibiton rate (A549 cells (control); 200 uM): 64% and 60% and 63% and 57% and 61% | raw luminescence reading (A549 cells (control); 200 uM): 232800 and 260700 and 234900 and 239800 and 281200 and 257400
